Assay type in all cases: cell-based
One test concerns total aerobes. The test can be described thus: Example 4 (reference): laboratory test, broke sample, total aerobes count. To be noted: broke 1.0% consistency, pH 7.8, ORP +146 mV; 10 ppm active chlorine, 1 day contact time; untreated 650 000 cfu/ml. The method, then: (§1) This laboratory test was performed in order to test killing effect of sodium hypochlorite against total aerobes and aerobic spores in broke sample (consistency 1.0%, pH 7.8, ORP +146 mV) taken from an alkaline board machine, which produces 3-ply food packaging board. Total aerobes and aerobic spore counts were quantitated by using plate count agar (+45° C./+37° C., 2 days incubation). Prior to the bacterial spore determination, samples were pasteurized at +80° C. for 20 min.

Test [1] relates to aerobic spores. The test can be described thus: Example 4 (reference): laboratory test, broke sample, aerobic spore count. The settings on record: broke 1.0% consistency, pH 7.8, ORP +146 mV; 10 ppm active chlorine, 1 day contact time; untreated 70 cfu/ml. The procedure:
as §1

Test [2] relates to aerobic spores. Kind of test: Example 5: pilot paper machine test, aerobic spores in dry paper (ISO 8784-1). The settings on record: glutaraldehyde alone, 50 ppm as active agent, 5 min post-treatment of pulp suspension (reference paper). The method, then:
This test was performed in a pilot paper machine producing 1-ply paper. Aim of the test was to verify efficacy of the invention to provide a low quantity of aerobic bacteria and aerobic bacterial spores in dry paper end-product. Composition 1-5 comprising 40 weight-% of dodecylamine, 40 weight-% of dipropylene glycol and 20 weight-% of water was used according to the invention. It was dosed as 100, 150 or 300 mg/l into pulp suspension with 2.25% consistency. The pulp suspension was then mixed 120 rpm for 30 min at +40° C. The pulp suspension was made from a batch of authentic, spore-contaminated folding-box board with average spore content of 7000 cfu/gram of dry board. All pulp suspensions in the pilot paper machine were also post-treated (5 min, 120 rpm) with glutaraldehyde (dose: 50 ppm as active agent) in order to maintain control of vegetative bacterial cells in the pilot machine. Total aerobic bacteria (without pasteurization) and aerobic spores (with pasteurization step at +82° C. for 10 min) were quantified from the dry paper end product according to the ISO 8784-1 standard for microbiological examination of paper and board.

Consider two compounds from patent publication US11160282B2, “Use of a composition and method for reducing bacterial spores in pulp suspension” (Kemira Oyj, priority 2016, dated 2021).

`OCl` [Sodium hypochlorite, sodium hypochlorite]: the total aerobes with total aerobes is 390 000 cfu/ml. The same compound had an aerobic spores in the test on aerobic spores [1] of 60 cfu/ml.

Turning to `O=CCCCC=O` [glutaraldehyde], the “effect on spore contamination in the produced paper” value with aerobic spores [2] is recorded as “not alone capable to lower spore contamination”.
